Experimental data as given in patent US20050187302A1, “Method for treatment or prevention of osteoporosis in individuals with high bone turnover” (Hormos Medical Corporation, priority 2004, published 2005).
Read-outs that look alike come from different tables or passages of the source.

Key:
[1] = tested on: ovariectomized (OVX) female rats; conditions: for Urine total pyridinoline/deoxypyridoline crosslinks, change from base line at 30 days: started one day after OVX, 30 days after OVX; for Trabecular BMD mg/cm^2: 3 months treatment, tibial trabecular bone
Protocol: (§1) High bone turnover was induced to 2-4 months old female rats by ovariectomy (OVX). Treatment with ospemifene was started at different time points after OVX: 1 day, 1, 2, and 3 months after OVX. Bone resorption was evaluated in short-term by bone specific TRAP5b, which is a […] secreted specifically by osteoclasts, and later by pyridinoline/deoxypyridinoline cross links, which are degradation products of bone collagen and excreted in the urine. Finally, during autopsy, usually after 3 months treatment, trabecular bone mineral density was measured.
Female rats, age about 4 months, were ovariectomized. Treatment with vehicle or ospemifene was started at different periods after OVX (from one day to 3 months). The ospemifene doses were 5, 10 or 25 mg/kg and the treatment period was 3 months. Evaluation of the bone occurred by bone mineral density measurement of tibial trabecular bone after the treatment and in some groups also by bone collagen degradation products excreted in the urine.

[2] = tested on: ovariectomized (OVX) female rats; conditions: female rats 2 months old, ospemifene 10 mg/kg, change from baseline, n = 6
Protocol: as §1

postmenopausal women = postmenopausal women with high bone marker levels at baseline, daily doses 60 mg and 90 mg, 12 weeks
Protocol: In the clinical trials, bone turnover was evaluated by measuring the levels of bone formation markers in serum and bone resorption markers in urine. Both bone resorption markers e.g. amino terminal telopeptide of type I collagen (U-NTX) and carboxy terminal telopeptide of type I collagen (U-CTX) and formation markers e.g. amino terminal propeptide of type I procollagen (S-PINP) and carboxy terminal propeptide of type I procollagen (S-PICP) are increased in menopause, indicating high bone turnover.
Most of the women had normal bone marker levels at baseline. […] The upper limit of normal range in women was 84 μg/l for S-PINP, 65 nmol/mmol Crea for U-NTX, 170 μg/l for S-PICP and 680 μg/mmol Crea for U-CTX.

OCCOc1ccc(/C(=C(/CCCl)c2ccccc2)c2ccccc2)cc1 [Ospemifene]
Urine total pyridinoline/deoxypyridoline crosslinks, change from base line at 30 days ([1]; 5 mg/kg daily): 55 ± 16
Trabecular BMD mg/cm^2 ([1]; 5 mg/kg, treatment started 1 day after OVX, n = 20): 374 ± 21 mg/cm^2
Trabecular BMD mg/cm^2 ([1]; 10 mg/kg, treatment started 1 month after OVX, n = 8): 138 ± 24 mg/cm^2
Trabecular BMD mg/cm^2 ([1]; 10 mg/kg, treatment started 2 months after OVX, n = 8): 78 ± 14 mg/cm^2
Trabecular BMD mg/cm^2 ([1]; 10 mg/kg, treatment started 3 months after OVX, n = 8): 78 ± 17 mg/cm^2
Urine total pyridinoline/deoxypyridoline crosslinks, change from base line at 30 days ([1]; 25 mg/kg daily): 33 ± 20
Trabecular BMD mg/cm^2 ([1]; 25 mg/kg, treatment started 1 day after OVX, n = 20): 392 ± 15 mg/cm^2
Excretion of crosslinks, resorption marker (in words) ([1]; first month after OVX, high bone turnover): significantly decreases the excretion of crosslinks
Effect on OVX-induced bone loss (in words) ([1]; treatment started 1 month after OVX, bone turnover high): significant beneficial bone effect
Effect on OVX-induced bone loss (in words) ([1]; treatment started 2 months after OVX, bone turnover markedly decreased): modest beneficial bone effect
Effect on OVX-induced bone loss (in words) ([1]; treatment started 3 months after OVX, bone turnover low): almost lost the benefial bone effect
Effect on OVX-induced bone loss (in words) ([1]; treatment started 1 day after OVX, bone turnover very high): able to prevent almost completely the OVX-induced bone loss
Change of TRAP5b activity in serum (%) 2 days after OVX [2]: −23.3 ± 5.8%
Change in bone formation and resorption markers (S-PINP, S-PICP, U-CTX, U-NTX) (in words) (postmenopausal women): large decrease both in formation and resorption bone markers
